Assay results: US10961278B2, “Vancomycin derivative, preparation method, pharmaceutical composition and use thereof” (SHANGHAI INSTITUTE OF MATERIA MEDICA, CHINESE ACADEMY OF …, priority 2016, dated 2021)
In brackets after ≈: the same amount, converted by molar mass. Where two headings read alike, the source gives them in different places.

Columns and labels:
[1] = test system: vancomycin-sensitive Staphylococcus aureus Newman strain; assay: In vitro antibacterial activity assay (MIC, CLSI dilution method); type: cell-based; details: 16 h, S. aureus Newman, 37° C.; for MIC: Staphylococcus aureus
[2] = test system: vancomycin-middle resistant Staphylococcus aureus Mu50 strain; assay: as above; type: cell-based; details: 16 h; for MIC: Staphylococcus aureus, read-out: MIC Mu50

SMILES	MIC ([1]; NEWMAN) [µg/mL]	MIC ([2]; S. aureus Mu50, 37° C.) [µg/mL]	further results
CCCCCCCCCNC1(C)C[C@H](O[C@H]2C(Oc3c4cc5cc3Oc3ccc(cc3Cl)[C@@H](O)[C@@H](NC(=O)[C@@H](CC(C)C)NC)C(=O)N[C@@H](CC(N)=O)C(=O)N[C@H]5C(=O)N[C@H]3C(=O)N[C@H](C(=O)N[C@H](C(=O)O)c5cc(O)c(CNCCCNC(=O)[C@H](O)[C@@H](O)[C@H](O)[C@H](O)CO)c(O)c5-c5cc3ccc5O)[C@H](O)c3ccc(c(Cl)c3)O4)O[C@H](CO)C(O)C2O)CC(C)[C@H]1O (stereo partly shown) [Van019]	0.5 (≈ 0.272 µM)	2 (≈ 1.09 µM)	
CN[C@H](CC(C)C)C(=O)N[C@H]1C(=O)N[C@@H](CC(N)=O)C(=O)N[C@H]2C(=O)N[C@H]3C(=O)N[C@H](C(=O)N[C@H](C(=O)O)c4cc(O)c(CNCCO[C@@H]5OC(CO)[C@H](O)C(O)C5O)c(O)c4-c4cc3ccc4O)[C@H](O)c3ccc(c(Cl)c3)Oc3cc2cc(c3OC2O[C@H](CO)C(O)C(O)[C@H]2O[C@@H]2CC(C)[C@@H](O)C(C)(NCc3ccc(-c4ccc(Cl)cc4)cc3)C2)Oc2ccc(cc2Cl)[C@H]1O (stereo partly shown) [Van011]	≤ 0.0625	1 (≈ 0.531 µM)	
CN[C@H](CC(C)C)C(=O)N[C@H]1C(=O)N[C@@H](CC(N)=O)C(=O)N[C@H]2C(=O)N[C@@H]3C(=O)N[C@H](C(=O)N[C@H](C(=O)NCCCNC(=O)[C@H](O)[C@@H](O)[C@H](O)[C@H](O)CO)c4cc(O)cc(O)c4-c4cc3ccc4O)[C@H](O)c3ccc(c(Cl)c3)Oc3cc2cc(c3OC2O[C@H](CO)C(O)C(O)[C@H]2O[C@H]2CC(C)(NCc3ccc(-c4ccc(Cl)cc4)cc3)[C@H](O)C(C)O2)Oc2ccc(cc2Cl)[C@H]1O (stereo partly shown) [Van023]			MIC [1]: 2 µg/mL (≈ 1.06 µM); MIC [2]: 4 µg/mL (≈ 2.12 µM)
CCCCCCCCCCNCCNC1(C)C[C@H](O[C@@H]2C(O)C(O)[C@@H](CO)O[C@H]2Oc2c3cc4cc2Oc2ccc(cc2Cl)[C@@H](O)[C@@H](NC(=O)[C@@H](CC(C)C)NC)C(=O)N[C@@H](CC(N)=O)C(=O)N[C@H]4C(=O)N[C@@H]2C(=O)N[C@H](C(=O)N[C@H](C(=O)O)c4cc(O)c(CNCCO)c(O)c4-c4cc2ccc4O)[C@H](O)c2ccc(c(Cl)c2)O3)O[C@@H](C)[C@H]1O (stereo partly shown) [Van005]	1 (≈ 0.586 µM)	4 (≈ 2.35 µM)	
CN[C@H](CC(C)C)C(=O)N[C@H]1C(=O)N[C@@H](CC(N)=O)C(=O)N[C@H]2C(=O)N[C@H]3C(=O)N[C@H](C(=O)N[C@H](C(=O)O)c4cc(O)c(CNCCCNC(=O)[C@H](O)[C@@H](O)[C@H](O)[C@H](O)CO)c(O)c4-c4cc3ccc4O)[C@H](O)c3ccc(c(Cl)c3)Oc3cc2cc(c3OC2O[C@H](CO)C(O)C(O)[C@H]2O[C@@H]2CC(C)[C@@H](O)C(C)(NCc3ccc(-c4ccc(Cl)cc4)cc3)C2)Oc2ccc(cc2Cl)[C@H]1O (stereo partly shown) [Van014]			MIC [1]: 0.25 µg/mL (≈ 0.131 µM); MIC [2]: 0.125 µg/mL (≈ 0.0654 µM)
CCCCCCCCCCNCCNC1(C)C[C@H](O[C@@H]2C(O)C(O)[C@@H](CO)O[C@H]2Oc2c3cc4cc2Oc2ccc(cc2Cl)[C@@H](O)[C@@H](NC(=O)[C@@H](CC(C)C)NC)C(=O)N[C@@H](CC(N)=O)C(=O)N[C@H]4C(=O)N[C@@H]2C(=O)N[C@H](C(=O)N[C@H](C(=O)O)c4cc(O)c(CNC5C(O)OC(CO)[C@@H](O)[C@@H]5O)c(O)c4-c4cc2ccc4O)[C@H](O)c2ccc(c(Cl)c2)O3)O[C@@H](C)[C@H]1O (stereo partly shown) [Van007]			MIC Newman [1]: 4 µg/mL (≈ 2.19 µM); MIC Mu50 ([2]; S. aureus Mu50, 37° C.): 8 µg/mL (≈ 4.39 µM)
CN[C@H](CC(C)C)C(=O)N[C@H]1C(=O)N[C@@H](CC(N)=O)C(=O)N[C@H]2C(=O)N[C@@H]3C(=O)N[C@H](C(=O)N[C@H](C(=O)O)c4cc(O)c(CNCCCNC(=O)[C@H](O)[C@@H](O)[C@H](O[C@@H]5OC(CO)[C@H](O)C(O)[C@@H]5O)[C@H](O)CO)c(O)c4-c4cc3ccc4O)[C@H](O)c3ccc(c(Cl)c3)Oc3cc2cc(c3OC2O[C@H](CO)C(O)C(O)[C@H]2O[C@H]2CC(C)(NCc3ccc(-c4ccc(Cl)cc4)cc3)[C@H](O)C(C)O2)Oc2ccc(cc2Cl)[C@H]1O (stereo partly shown) [Van015]			MIC [1]: 0.25 µg/mL (≈ 0.12 µM); MIC [2]: 0.5 µg/mL (≈ 0.241 µM)
CCCCCCCCCCNC1(C)C[C@H](O[C@H]2C(Oc3c4cc5cc3Oc3ccc(cc3Cl)[C@@H](O)[C@@H](NC(=O)[C@@H](CC(C)C)NC)C(=O)N[C@@H](CC(N)=O)C(=O)N[C@H]5C(=O)N[C@H]3C(=O)N[C@H](C(=O)N[C@H](C(=O)O)c5cc(O)c(CNCCCNC(=O)[C@H](O)[C@@H](O)[C@H](O)[C@H](O)CO)c(O)c5-c5cc3ccc5O)[C@H](O)c3ccc(c(Cl)c3)O4)O[C@H](CO)C(O)C2O)CC(C)[C@H]1O (stereo partly shown) [Van024]	0.125 (≈ 0.0675 µM)	0.5 (≈ 0.27 µM)	
CCCCCc1ccc(CNC2(C)C[C@H](O[C@@H]3C(O)C(O)[C@@H](CO)O[C@H]3Oc3c4cc5cc3Oc3ccc(cc3Cl)[C@@H](O)[C@@H](NC(=O)[C@@H](CC(C)C)NC)C(=O)N[C@@H](CC(N)=O)C(=O)N[C@H]5C(=O)N[C@@H]3C(=O)N[C@H](C(=O)N[C@H](C(=O)O)c5cc(O)c(CNC6C(O)OC(CO)[C@H](O)[C@@H]6O)c(O)c5-c5cc3ccc5O)[C@H](O)c3ccc(c(Cl)c3)O4)O[C@@H](C)[C@H]2O)cc1 (stereo partly shown) [Van036]			MIC [1]: 0.25 µg/mL (≈ 0.139 µM); MIC [2]: 0.5 µg/mL (≈ 0.278 µM)
C#Cc1ccc(CNC2(C)C[C@H](O[C@H]3C(Oc4c5cc6cc4Oc4ccc(cc4Cl)[C@@H](O)[C@@H](NC(=O)[C@@H](CC(C)C)NC)C(=O)N[C@@H](CC(N)=O)C(=O)N[C@H]6C(=O)N[C@H]4C(=O)N[C@H](C(=O)N[C@H](C(=O)O)c6cc(O)c(CNCCCNC(=O)[C@H](O)[C@@H](O)[C@H](O)[C@H](O)CO)c(O)c6-c6cc4ccc6O)[C@H](O)c4ccc(c(Cl)c4)O5)O[C@H](CO)C(O)C3O)CC(C)[C@H]2O)cc1 (stereo partly shown) [Van029]	4 (≈ 2.19 µM)	8 (≈ 4.38 µM)	
CN[C@H](CC(C)C)C(=O)N[C@H]1C(=O)N[C@@H](CC(N)=O)C(=O)N[C@H]2C(=O)N[C@H]3C(=O)N[C@H](C(=O)N[C@H](C(=O)O)c4cc(O)c(CNCCCNC(=O)[C@H](O)[C@@H](O)[C@H](O)[C@H](O)CO)c(O)c4-c4cc3ccc4O)[C@H](O)c3ccc(c(Cl)c3)Oc3cc2cc(c3OC2O[C@H](CO)C(O)C(O)[C@H]2O[C@@H]2CC(C)[C@@H](O)C(C)(NCc3cccc4ccccc34)C2)Oc2ccc(cc2Cl)[C@H]1O (stereo partly shown) [Van027]	1 (≈ 0.54 µM)	4 (≈ 2.16 µM)	

Continued, in another order:

MIC ([1]; NEWMAN) [µg/mL]	MIC ([2]; S. aureus Mu50, 37° C.) [µg/mL]	SMILES	further results
8 (≈ 4.39 µM)		CCCCCCCCCCNCCNC1(C)C[C@H](O[C@@H]2C(O)C(O)[C@@H](CO)O[C@H]2Oc2c3cc4cc2Oc2ccc(cc2Cl)[C@@H](O)[C@@H](NC(=O)[C@@H](CC(C)C)NC)C(=O)N[C@@H](CC(N)=O)C(=O)N[C@H]4C(=O)N[C@@H]2C(=O)N[C@H](C(=O)N[C@H](C(=O)O)c4cc(O)c(CNC5C(O)OC(CO)[C@@H](O)[C@@H]5O)c(O)c4-c4cc2ccc4O)[C@H](O)c2ccc(c(Cl)c2)O3)O[C@@H](C)[C@H]1O (stereo partly shown) [Van006]	MIC Mu50 ([2]; S. aureus Mu50, 37° C.): 32 µg/mL (≈ 17.5 µM)
1 (≈ 0.535 µM)	4 (≈ 2.14 µM)	CCCCCCCCCCNCCNC1(C)C[C@H](O[C@H]2C(Oc3c4cc5cc3Oc3ccc(cc3Cl)[C@@H](O)[C@@H](NC(=O)[C@@H](CC(C)C)NC)C(=O)N[C@@H](CC(N)=O)C(=O)N[C@H]5C(=O)N[C@H]3C(=O)N[C@H](C(=O)N[C@H](C(=O)O)c5cc(O)c(CNCCO[C@@H]6OC(CO)[C@@H](O)C(O)C6O)c(O)c5-c5cc3ccc5O)[C@H](O)c3ccc(c(Cl)c3)O4)O[C@H](CO)C(O)C2O)OC(C)[C@H]1O (stereo partly shown) [Van004]	
0.5 (≈ 0.268 µM)	2 (≈ 1.07 µM)	CCCCCCCCCCNCCNC1(C)C[C@H](O[C@H]2C(Oc3c4cc5cc3Oc3ccc(cc3Cl)[C@@H](O)[C@@H](NC(=O)[C@@H](CC(C)C)NC)C(=O)N[C@@H](CC(N)=O)C(=O)N[C@H]5C(=O)N[C@H]3C(=O)N[C@H](C(=O)N[C@H](C(=O)O)c5cc(O)c(CNCCO[C@@H]6OC(CO)[C@H](O)C(O)C6O)c(O)c5-c5cc3ccc5O)[C@H](O)c3ccc(c(Cl)c3)O4)O[C@H](CO)C(O)C2O)OC(C)[C@H]1O (stereo partly shown) [Van002]	
